Measurements reported in publication PMC10107326 (Angewandte Chemie (International Ed. in English), 2022).
No end group written: not given here.

Assays:
HepG2 = assay: Cytotoxicity against HepG2; assay type: cell-based; settings: HepG2 human cell line
large panel of pathogens = settings: pure DD; cited from earlier work

Substance	IC50 (HepG2)	decrease in activity when comparing DA and DD, fold (large panel of pathogens)
D32: engineered darobactin, core peptide WNWCKRW, cysteine disulfide-bonded to L-cysteine and lactic acid (not fully specified; also: Cys4 disulfide-bonded to L-cysteine, lactic acid attached, position not given here)	> 37 µg/mL	–
WNWTRSF (also: bicyclic or more (positions not given here)) [DD]	–	16 fold
